In US11912723B2, “KRAS modulators and uses thereof” (Quanta Therapeutics, Inc., priority 2022, dated 2024) one finds IC50 data, which are given here for twelve compounds.

The target in test [1] is T1, GST-tagged KRAS G12D (2-169) (Homo sapiens, UniProt P01116, G12D).
T1 construct: GST-tagged KRAS^G12D (2-169, Reaction Biology, MSC-11-539); purchased Reaction Biology MSC-11-539 (KRAS G12D); MSC-11-502 (SOS1cat)
The test can be described thus: Nucleotide exchange assay (NEA), HTRF of SOS-mediated GTP-DY-647P1 binding. The class given is biochemical. As to conditions: 5 nM GST-KRAS G12D, 20 nM SOScat, 150 nM GTP; compound 1 h at RT. The procedure, abridged:
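After 1 h RT preincubation of compound with KRAS, SOS1cat (20 nM final) and fluorescent GTP analog (150 nM) were added to 5 nM KRAS; HTRF (anti-GST Tb donor) followed at RT for up to 90 min. % inhibition relative to DMSO and no-SOS1 blank, 4-parameter curve fit.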
On the technique in general: Time-resolved FRET reads energy transfer from a long-lived donor to a nearby acceptor.

A further test deals with T2, KRAS G12D/RAF1 (Homo sapiens, UniProt P01116, G12D).
T2 construct: KRAS (1-169) proteins were expressed in E. coli at 18° C; His6-MBP (N, cleaved yes); made in house; host or cells: E. coli
T2 sequence (P01116 1-169 isoform P01116-2 G12D): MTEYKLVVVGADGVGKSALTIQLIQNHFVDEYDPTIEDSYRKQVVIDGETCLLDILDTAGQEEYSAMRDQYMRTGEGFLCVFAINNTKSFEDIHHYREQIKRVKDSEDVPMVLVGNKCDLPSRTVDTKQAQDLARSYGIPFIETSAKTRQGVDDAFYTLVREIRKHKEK
The test can be described thus: Protein-protein interaction (PPI) HTRF assay KRAS G12D/RAF1. It counts as binding. As to conditions: KRAS G12D/RAF1, GppNHp-loaded KRAS; 30 minutes pre-incubation. How it is done: Biotinylated KRAS wt and KRAS G12DNV proteins were expressed and purified in conditions similar to those previously reported (Tran, et al., 2021) (Zhang, et al., 2020). Briefly, KRAS (1-169) proteins were expressed in E. coli at 18° C. with an upstream TEV cleavage site (ENLFYQS) followed an Avi tag sequence ([…]). KIRAS expression constructs contained both a His6 and maltose-binding protein (MBP) tags at the N-terminus for Ni-NTA column purification prior to overnight TEV cleavage and MBP column purification. The avi-tagged NRAS expression construct contained both a His6 tag and SUMO cleavage sige at the N-terminus for Ni-NTA column purification followed by His-ULP1 digestion overnight. All avi-tagged RAS proteins were dialyzed into buffer containing ATP, biotin, and BirA followed by purification over a second Ni-NTA column and then run over a size exclusion HiLoad™ 26/600 Superdex™ column in 20 mM HEPES, pH 7.5, 300 mM NaCl, 5 mM MgCl2, and 1 mM TCEP. Fractions containing the protein of interest were pooled, concentrated, and confirmed by intact mass spectrometry. To prepare ‘GTP’ loaded KRAS and NRAS, biotinylated KRAS or NRAS was nucleotide exchanged from GDP-bound protein to GppNHp-bound (Jena Biosciences, NU-401-50) protein in the presence of alkaline phosphatase and excess GppNHp as previously described and the resulting nucleotide content was confirmed by HPLC reverse phase analytical chromatography (Donohue, et al., 2019) (Tran, et al., 2021).
His-tagged RAF1 (52-131) was similarly expressed in E. coli at 18° C. overnight with an upstream TEV cleavage site. His-tagged RAF1 expression construct contained both a His6 and MBP tags at the N-terminus for Ni-NTA column purification followed by MBP-tagged TEV digestion overnight. RAF1 protein samples were further purified over a MBP column followed by a Ni-NTA column and a second MBP column. The fractions containing the protein of interest were pooled, concentrated, and further purified over a HiLoad™ 16/600 Superdex™ 75 pg size exclusion column into 20 mM HEPES, pH8.0, 200 mM NaCl, 5 mM TCEP.
When RAS proteins are in the active GTP-bound conformation, they bind the effector protein RAF1 at the N-terminus Ras-binding domain (RBD, residues 52-131) (Tran, et al., 2021). Homogenous time resolved fluorescence (HTRF) was used to monitor the interaction between wt or mutant KRAS and RAF1 or wt NRAS and RAFT. Compounds were assayed in the presence of KRAS G12D/V and RAF1 versus wt KRAS to assess activity against mutant and w.t. KRAS. Similarly, compounds were then assayed in the presence of w.t. NRAS and RAF1 to assess RAS isoform selectivity. In all assay formats, His-tagged RAF1 protein was incubated with the HTRF donor, anti-6His Tb Cryptate gold (Cisbio 61DB10RDF), and biotinylated RAS proteins were incubated with the HTRF acceptor, streptavidin-d2 (CisBio 610SADLA). The intensity of the fluorescence signal emitted is proportional to binding between the two proteins. The donor solution was prepared by mixing 16 nM His-tagged RAF1 in protein dilution buffer with 1:100 anti-6His Tb cryptate in PPI-Terbium detection buffer. 16 nM biotinylated RAS protein was diluted into protein dilution buffer (50 mM Tris-HCl pH 7.5, 150 mM NaCl, 0.1 mM MgCl2, 1 mM TCEP, 0.005% Tween20) and mixed with 1:2000 Streptavidin-d2 diluted in PPI-Terbium detection buffer (CisBio 61DB10RDF). 50× compound in DMSO was mixed with 16 nM KRAS-acceptor solution and incubated for 30 minutes at room temperature. After compound pre-incubation with KRAS, the RAF1 donor solution was added to the KRAS-acceptor solution and incubated for 1 hour at room temperature. The fluorescence signal emitted was monitored at 665 nm and 615 nm using an Envision multimode plate reader. The HTRF ratio (665/615) was calculated and normalized to 0% inhibition in the absence of compound and 100% inhibition in the presence of untagged RAF1 protein. […]

T1 sequence (P01116 2-169 isoform P01116-2 G12D): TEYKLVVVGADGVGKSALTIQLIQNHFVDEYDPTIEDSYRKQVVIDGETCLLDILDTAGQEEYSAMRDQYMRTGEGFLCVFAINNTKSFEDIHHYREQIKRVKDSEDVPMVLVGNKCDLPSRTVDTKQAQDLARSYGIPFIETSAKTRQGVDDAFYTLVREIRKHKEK

As to `CN1Cc2c(nc(OC[C@@]34CCCN3C[C@H](F)C4)nc2N2CCC[C@]3(C2)NC(=O)NC3=O)C[C@]12CCCc1ccccc12` [Compound 71, (5R)-9-[(7S)-2-[[(2R,8S)-2-fluoro-1,2,3,5,6,7-hexahydropyrrolizin-8-yl]methoxy]-6-methyl-spiro[5,8-dihydropyrido[4,3-d]pyrimidine-7,1′-tetralin]-4-yl]-1,3,9-triazaspiro[4.5]decane-2,4-dione], the figures for the IC50 (in test [1]; against KRAS G12D/RAF1) were 100 to 1000 nM and over 100000 nM, respectively.

For `Cc1noc(-c2cc3n(n2)CCCN(c2nc(OC[C@@]45CCCN4C[C@H](F)C5)nc4c2CN(C)[C@@]2(CCc5cccc(F)c52)C4)C3)n1` [Compound 73, 5-[5-[(7S)-7′-fluoro-2-[[(2R,8S)-2-fluoro-1,2,3,5,6,7-hexahydropyrrolizin-8-yl]methoxy]-6-methyl-spiro[5,8-dihydropyrido[4,3-d]pyrimidine-7,1′-indane]-4-yl]-4,6,7,8-tetrahydropyrazolo[1,5-a][1,4]diazepin-2-yl]-3-methyl-1,2,4-oxadiazole], the values for the IC50 (in test [1]; at KRAS G12D/RAF1) were 10 to 100 nM and over 100000 nM, respectively.

Take `Cc1noc(-c2cc3n(n2)CCCN(c2nc(OC[C@@]45CCCN4C[C@H](F)C5)nc4c2CN(C)[C@@]2(CCCc5ccccc52)C4)C3)n1` [Compound 74, 5-[5-[(7S)-2-[[(2R,8S)-2-fluoro-1,2,3,5,6,7-hexahydropyrrolizin-8-yl]methoxy]-6-methyl-spiro[5,8-dihydropyrido[4,3-d]pyrimidine-7,1′-tetralin]-4-yl]-4,6,7,8-tetrahydropyrazolo[1,5-a][1,4]diazepin-2-yl]-3-methyl-1,2,4-oxadiazole]: the IC50 in test [1] was 10 to 100 nM; against KRAS G12D/RAF1, over 100000 nM.

As to `CN(C)C(=O)c1nn2c(c1C#N)CN(c1nc(OC[C@@]34CCCN3C[C@H](F)C4)nc3c1CN(C)[C@@]1(CCc4cccc(F)c41)C3)CCC2` [Compound 76, 3-cyano-5-[(7S)-7′-fluoro-2-[[(2R,8S)-2-fluoro-1,2,3,5,6,7-hexahydropyrrolizin-8-yl]methoxy]-6-methyl-spiro[5,8-dihydropyrido[4,3-d]pyrimidine-7,1′-indane]-4-yl]-N,N-dimethyl-4,6,7,8-tetrahydropyrazolo[1,5-a][1,4]diazepine-2-carboxamide], the values for the IC50 (in test [1]; at KRAS G12D/RAF1) were under 10 nM and 10000 to 100000 nM, respectively.

On to `CN(C)C(=O)c1nn2c(c1C#N)CN(c1nc(OC[C@@]34CCCN3C[C@H](F)C4)nc3c1CN(C)[C@@]1(CCCc4ccccc41)C3)CCC2` [Compound 77, 3-cyano-5-[(7S)-2-[[(2R,8S)-2-fluoro-1,2,3,5,6,7-hexahydropyrrolizin-8-yl]methoxy]-6-methyl-spiro[5,8-dihydropyrido[4,3-d]pyrimidine-7,1′-tetralin]-4-yl]-N,N-dimethyl-4,6,7,8-tetrahydropyrazolo[1,5-a][1,4]diazepine-2-carboxamide], for which the IC50 in test [1] is under 10 nM; at KRAS G12D/RAF1, 10000 to 100000 nM.

With `CN1Cc2c(nc(OC[C@@]34CCCN3C[C@H](F)C4)nc2N2CCCn3nc(C(=O)O)c(Cl)c3C2)C[C@]12CCCc1ccccc12` [Compound 78, 3-chloro-5-[(7S)-2-[[(2R,8S)-2-fluoro-1,2,3,5,6,7-hexahydropyrrolizin-8-yl]methoxy]-6-methyl-spiro[5,8-dihydropyrido[4,3-d]pyrimidine-7,1′-tetralin]-4-yl]-4,6,7,8-tetrahydropyrazolo[1,5-a][1,4]diazepine-2-carboxylic acid], the figures for the IC50 (in test [1]; on KRAS G12D/RAF1) were under 10 nM and 10000 to 100000 nM, respectively.

As for `CN1Cc2c(nc(OCC3(CN4CCOCC4)CC3)nc2N2C[C@H]3CC[C@@H](C2)N3)C[C@]12CCCc1ccccc12` [Compound 80, 4-[[1-[[(7S)-6-methyl-4-[(1R,5S)-3,8-diazabicyclo[3.2.1]octan-3-yl]spiro[5,8-dihydropyrido[4,3-d]pyrimidine-7,1′-tetralin]-2-yl]oxymethyl]cyclopropyl]methyl]morpholine], the IC50 in test [1] lay in the range of 10 to 100 nM; against KRAS G12D/RAF1 it was 10000 to 100000 nM.

On to `CN1Cc2c(nc(OC[C@@]34CCCN3C[C@H](F)C4)nc2N2CCCn3nc(-c4nc5ccccc5n4C)cc3C2)C[C@]12CCCc1ccccc12` [Compound 82, (7S)-2-[[(2R,8S)-2-fluoro-1,2,3,5,6,7-hexahydropyrrolizin-8-yl]methoxy]-6-methyl-4-[2-(1-methylbenzimidazol-2-yl)-4,6,7,8-tetrahydropyrazolo[1,5-a][1,4]diazepin-5-yl]spiro[5,8-dihydropyrido[4,3-d]pyrimidine-7,1′-tetralin]], for which the IC50 in test [1] is 10 to 100 nM; on KRAS G12D/RAF1, over 100000 nM.

In the case of `CN1Cc2c(nc(OC[C@@]34CCCN3C[C@H](F)C4)nc2N2CCCn3nc(-c4nc5c(F)cccc5n4C)cc3C2)C[C@]12CCCc1ccccc12` [Compound 83, (7S)-2-[[(2R,8S)-2-fluoro-1,2,3,5,6,7-hexahydropyrrolizin-8-yl]methoxy]-4-[2-(4-fluoro-1-methyl-benzimidazol-2-yl)-4,6,7,8-tetrahydropyrazolo[1,5-a][1,4]diazepin-5-yl]-6-methyl-spiro[5,8-dihydropyrido[4,3-d]pyrimidine-7,1′-tetralin]], the IC50 in test [1] was 10 to 100 nM; against KRAS G12D/RAF1, over 100000 nM.

On to `CN1Cc2c(nc(OC[C@@]34CCCN3C[C@H](F)C4)nc2N2C[C@H]3CC[C@@H](C2)[C@@H]3N)C[C@]12CCCc1ccccc12` [Compound 85, (1R,5S)-3-[(7S)-2-[[(2R,8S)-2-fluoro-1,2,3,5,6,7-hexahydropyrrolizin-8-yl]methoxy]-6-methyl-spiro[5,8-dihydropyrido[4,3-d]pyrimidine-7,1′-tetralin]-4-yl]-3-azabicyclo[3.2.1]octan-8-amine], for which the IC50 in test [1] is 1000 to 20000 nM; on KRAS G12D/RAF1, over 100000 nM.

Turning to `CN1Cc2c(nc(OCC34CCCN3CC(F)C4)nc2N2CC3CCC(C2)C3NC#N)CC12CCCc1ccccc12` [Compound 86, [(1R,5S)-3-[(7S)-2-[[(2R,8S)-2-fluoro-1,2,3,5,6,7-hexahydropyrrolizin-8-yl]methoxy]-6-methyl-spiro[5,8-dihydropyrido[4,3-d]pyrimidine-7,1′-tetralin]-4-yl]-3-azabicyclo[3.2.1]octan-8-yl]cyanamide], the IC50 in test [1] was under 10 nM; against KRAS G12D/RAF1, over 100000 nM.

As for `CN1Cc2c(nc(OC[C@@]34CCCN3C[C@H](F)C4)nc2N2CCCn3nc(-c4ccccn4)cc3C2)C[C@]12CCCc1ccccc12` [Compound 88, (7S)-2-[[(2R,8S)-2-fluoro-1,2,3,5,6,7-hexahydropyrrolizin-8-yl]methoxy]-6-methyl-4-[2-(2-pyridyl)-4,6,7,8-tetrahydropyrazolo[1,5-a][1,4]diazepin-5-yl]spiro[5,8-dihydropyrido[4,3-d]pyrimidine-7,1′-tetralin]], the IC50 in test [1] is 10 to 100 nM; on KRAS G12D/RAF1 it was over 100000 nM.

The term IC50 denotes the midpoint of a concentration-inhibition curve.
